Test results taken from PMC9229894, “In Silico, In Vitro, and Pharmacokinetic Studies of UBMC-4, a Potential Novel Compound for Treating against Trypanosoma cruzi” (Pathogens, 2022).
Entries after “also recorded” stand apart in the source; their conditions may differ.

Tests used:
Assay type in all cases: cell-based, Trypanosoma cruzi
T. cruzi epimastigotes [1] = assay: Scanning and transmission electron microscopy of epimastigotes under nutritional stress; details: 10 µM, nutritional stress (PBS) 6 h
Method: Epimastigotes untreated and treated with 10 uM of UBMC-4 under nutritional stress conditions (culture medium substitution for PBS for 6 h) were fixed for 2 h using 2.5% glutaraldehyde in cacodylate buffer 0.1 M. Parasites adhered for 10 min onto coverslips previously coated with 0.1% poly-L-lysin and subsequently washed with cacodylate buffer and dehydrated using 30%, 50%, 70%, and 90% (v/v) acetone for 5 min on each incubation. Subsequently, the cells were critically dried under CO2 and attached to the heel of the SEM instrument. Finally, samples were coated with a 20 nm-thick gold layer and analyzed in a Jeol JSM6010Plus-LA scanning electron microscope at 20 kV. For TEM, parasites were fixed for 2 h with glutaraldehyde and cacodylate buffer and then treated for 1 h with 1% OsO4 diluted in the same buffer. Parasites were dehydrated as above and then embedded in PolyBed-812 resin. Ultrathin sections were collected in copper grids and stained with 5% aqueous uranyl acetate and lead citrate. Samples were examined in a Jeol JEM-1400plus transmission electron microscope at 80 kV.

T. cruzi trypomastigotes [2] = assay: Flow cytometry of apoptosis-like markers in trypomastigotes; details: 10 µM; for DNA damage (hypodiploidy), % of trypomastigote population: time not given
Method: Apoptosis-like markers were analyzed by triple staining using 3,3′-dihexyloxacarbocyanine (DiOC6), propidium iodide (PI), and Hoechst from Thermo Fisher Scientific to determine the change of mitochondrial membrane potential (ΔΨm), cell membrane damage, and impairment of cell cycle, respectively. All readings were performed on a BD FACSCanto II 4/2/2 Sys IVD flow cytometer, and data obtained were analyzed using the FlowJo7.6.2 software. Differences between treatments were determined by a two-way ANOVA for multiple comparisons with 95% significance using GraphPad Prism 8. In all cases, 20 µL of parasites (5 × 10^6/mL) were stained per treatment with 300 µL of Hanks’ balanced saline solution (HBSS) and 10 µL of the staining mix containing […], 0.5 µL of 70 nM DiOC6, and 0.5 µL of 10 mg/mL Hoechst. Subsequently, parasites were incubated at room temperature for 15 min until reading.
The same markers mentioned above were used for T. cruzi trypomastigotes. A total of 1 × 10^6 trypomastigotes were centrifuged at 1800 RCF for 5 min to remove the culture medium. Parasites were cultured at […] in PBS or 10% FBS-supplemented DMEM with or without 10 µM UBMC-4, 10 µM chloroquine, and 10 µM UBMC-4/chloroquine for 2 h and 5 h. All experiments were compared to a culture setup using bz as control compound. Three biological replicates and three experimental replicates were applied to data collected at each time point for experimental conduction of every portion of the study. In all cases, ANOVA was applied for multiple comparisons after determining that data were normal.

T. cruzi epimastigotes [3] = assay: Intracellular ROS production in epimastigotes (H2DCFDA); details: 10 µM, 24 h
Method: A total of 1.4 × 10^6 epimastigotes grown under normal and stress nutritional conditions were treated with 10 µM UBMC-4 for 24 h and the intracellular ROS concentration was determined by fluorometric testing with the diacetate 2′,7′-dichlorodihydrofluorescein (H2DCFDA) probe at 0.2 µg/mL. As controls, cell cultures both treated with no probe as well as only labeled with H2DCFDA were performed to determine baseline fluorescence. A ROS-production positive control was set up by challenging parasites with […] rotenone (a ROS inducer) for 1 h prior to labeling and reading. After the treatment, parasites were washed and resuspended in 100 µL of the H2DCFDA-containing solution, transferred to 96-well plates protected from the light, and then incubated for 1 h at 37 °C. The test readout was collected using an ELISA plate reader at an excitation wavelength of 495 nm and emission wavelength of 527 nm, respectively. Each treatment was performed in triplicate, and data were reported in arbitrary units of fluorescence.

T. cruzi trypomastigotes [4] = assay: Morphological changes of trypomastigotes incubated with UBMC-4 (data not shown); details: 10 µM

## Oc1ccc(-c2nc(-c3ccc4sc5ccccc5c4c3)c(-c3ccccc3)[nH]2)cc1 [UBMC-4, 4-(4-dibenzo-[b,d]-thien-2-yl-5-phenyl-1H-imidazol-2-yl)phenol]
T. cruzi epimastigotes [1]
  morphology and ultra-structure changes (SEM, TEM): progressive alterations such as flagellum inactivation, cell size reduction, nuclear structure alteration, condensation of chromatin towards the nuclear periphery, vacuole formation, mitochondrial swelling with kinetoplast integrity loss; also recorded: non-reversible morphological damage
T. cruzi trypomastigotes [2]; normal nutritional conditions, 2 h
  mitochondrial membrane potential change: remained intact (no hyper- or depolarization)
T. cruzi trypomastigotes [2]; normal nutritional conditions, 5 h
  cell membrane permeability, % of trypomastigote population: 2.2%
T. cruzi trypomastigotes [2]; normal nutritional conditions
  DNA damage (hypodiploidy), % of trypomastigote population: 23%
T. cruzi trypomastigotes [2]; nutritional stress, 2 h
  Ψm depolarization, % of trypomastigotes: 32%
T. cruzi trypomastigotes [2]; nutritional stress, 5 h
  cell membrane permeability, % of trypomastigote population: 36%
  Ψm depolarization, % of trypomastigotes: 40%
T. cruzi trypomastigotes [2]; nutritional stress
  DNA damage (hypodiploidy), % of trypomastigote population: 54%
T. cruzi epimastigotes [3]; normal nutritional conditions
  intracellular ROS concentration, treated vs untreated: No significant differences
T. cruzi epimastigotes [3]; nutritional stress
  intracellular ROS concentration compared to untreated parasites: twofold ROS concentration
T. cruzi trypomastigotes [4]
  morphological changes of trypomastigotes: much faster progressive morphological changes within the hour
